Test results published in PMC12662848 (Cancer Chemotherapy and Pharmacology, 2025).

Key:
[1] = cited from earlier work
BCL-2 [2] = experiment: Western blotting of BCL-2α/β proteins and cleaved caspase-3 in healthy donor PBMCs treated ex vivo with ABT-199; type: cell-based, human; conditions: 1 µM
Method: (§1) PBMCs from the trial patients or healthy donors were isolated from whole blood using Lymphoprep™ ([…] Technologies, Cat. #07801) following the manufacturer’s protocol. Whole blood was diluted 1:1 with room temperature phosphate-buffered saline (PBS) containing 2% fetal bovine serum (FBS) and carefully layered over an equal volume of Lymphoprep™ in a 50 mL conical tube. Samples were centrifuged at 800 × g for 20–30 min at room temperature with the brake off. The PBMC layer formed at the interface between the plasma and Lymphoprep™ was gently collected and transferred to a new tube. Cells were washed once with PBS containing 2% FBS by centrifugation at 300 × g for 10 min, and the final pellet was resuspended in DMEM media for downstream culture.
(§2) ABT-199 (S8048, Selleck Chemicals) was dissolved in DMSO. Healthy donor PBMCs were seeded at a density of 2 × 10⁶ cells per 60 mm dish and treated with 1 μM of ABT-199 for various time intervals (i.e., 2, 4, 8, and 24 h). At the end of each time point, PBMCs were harvested for protein and RNA extraction (below). All treatments were performed in 3–6 biological replicates and control samples were treated with vehicle (DMSO) only.
PBMC samples from above were harvested using 0.1% trypsin–EDTA solution (Gibco) and centrifuged (1,000 rcf, 4 min, 4 °C), washed with DPBS (Gibco), centrifuged again (1,000 rcf, 4 min, 4 °C), and the pellet was lysed in denaturing buffer containing Halt protease inhibitor cocktail (Thermo Fisher Scientific; Cat# SD-001/SN-002) for 15 min on ice. After centrifugation (15,000 rcf, 15 min, 4 °C), an aliquot of the supernatant was taken to determine the protein concentration using a BCA Protein Assay Kit (Thermo Fisher Scientific). Protein samples were mixed in NuPAGE LDS buffer and 1 × reducing agent (Invitrogen) and denatured at 95 °C for 5 min. Proteins separated by sodium dodecyl sulfate–polyacrylamide gel electrophoresis (SDS-PAGE) were transferred to a nitrocellulose membrane at 110 V for 110 min in a wet tank transfer system (Surelock system, Invitrogen). […]

BCL-2β mRNA = experiment: qPCR analysis of BCL-2β mRNA in healthy donor PBMCs treated ex vivo with ABT-199; type: cell-based, human; conditions: 1 µM; for BCL-2β mRNA levels: 2–4 h post-treatment
Method: as §1, §2
We developed a qPCR-based strategy to quantitatively analyze the BCL-2α/β mRNA levels in control and ABT-199 treated PBMCs (above). Briefly, total RNA was extracted using the PicoPure™ RNA Isolation Kit (Thermo Fisher Scientific, cat# KIT0204) with on-column DNase treatment. cDNA was synthesized from 750 ng RNA using SuperScript™ IV VILO™ Master Mix (Thermo Fisher Scientific, cat# 11,756,050). Quantitative PCR was performed using TaqMan Gene Expression Assays (Bio-Rad) with a FAM-conjugated custom probe specific for the BCL-2β isoform (5’-[…]-3’; Bio-Rad, part# 10,031,261). […] Reactions were run on the QuantStudio™ 6 Flex Real-Time PCR System (Applied Biosystems) under standard cycling conditions. Relative expression was calculated using the 2^–ΔΔCt method normalized to the 0-h (untreated) control. All conditions were tested in technical triplicates from 3–6 independent experiments.

AR−/lo LAPC9-CRPC = tested on: AR−/lo LAPC9-CRPC; set-up: method as in PMID 30190514; conditions: single agent; cited from earlier work
[3] = set-up: method as in PMID 34416076; conditions: cited from earlier work
BCL-2 [4] = experiment: Automated Western blot (WES) analysis of BCL-2 protein in patient PBMCs; type: in vivo, human
Method: as §1
The BCL-2 protein levels in patient PBMCs were analyzed using PBMC lysate in the automated quantitative WES™ system (https://www.bio-techne.com/brands/proteinsimple), as we previously described. Briefly, the Simple Western WES™ immunoassays take place in capillaries and separate proteins by size as they migrate through stacking and separation matrix. The separated proteins are immobilized to the capillary wall via a proprietary, photoactivated capture chemistry. […] Quantitative results such as M.W, signal intensity (area), % area, and signal-to-noise for each immunodetected protein are presented in the results table automatically. […]

CC1(C)CCC(CN2CCN(c3ccc(C(=O)NS(=O)(=O)c4ccc(NCC5CCOCC5)c([N+](=O)[O-])c4)c(Oc4cnc5[nH]ccc5c4)c3)CC2)=C(c2ccc(Cl)cc2)C1 [venetoclax]
Absolute bioavailability [1]: ~ 5% | Less than expected exposure when doubling dose ([1]; from 400 to 800 mg, population PK report): 12% | Cmax ([1]; previous values, 800 mg dose): 3.74 µg/mL | Cmin ([1]; previous values, 800 mg dose): 1.43 µg/mL | Venetoclax half-life ([1]; previously reported in AML patients): 14 to 26 h | Venetoclax clearance ([1]; previously reported): 413 L/day | Apoptosis: active (cleaved) caspase-3 (BCL-2 [2]; PBMCs from all 3 healthy donors): increased active (cleaved) caspase-3 | BCL-2β protein levels and BCL-2β/BCL-2α ratios (BCL-2 [2]; all 3 healthy donor PBMCs, from 2 h up to 8 h): upregulated BCL-2β protein levels and increased the BCL-2β/BCL-2α ratios | BCL-2α/BCL-2β proteins (BCL-2 [2]; healthy donor PBMCs, ≥ 24 h post treatment): lost and undetectable | BCL-2β mRNA levels (BCL-2β mRNA): induced | BCL-2β mRNA levels (BCL-2β mRNA; listed as Venetoclax): increased significantly | BCL-2β mRNA (BCL-2β mRNA; ≥ 24 h post treatment): undetectable | Growth of AR−/lo LAPC9-CRPC (AR−/lo LAPC9-CRPC): greatly inhibited | Permeability [3]: low | Solubility [3]: low | BCL-2β and BCL-2α protein in patients' PBMCs (BCL-2 [4]; three 'responsive' patients (02–01, 02–07, 01–03), early cycles of treatment): promoted the generation of BCL-2β with concordant reduction in BCL-2α protein | BCL-2α and BCL-2β protein in patients' PBMCs (BCL-2 [4]; three 'responsive' patients, late cycles and towards the end of treatment (EoT)): markedly reduced
